Measured values: paper PMC7555119, “Characterization of Novel Synthetic Polyphenols: Validation of Antioxidant and Vasculoprotective Activities” (Antioxidants, 2020)
Converted amounts (≈) assume the structure as drawn. Where two headings read alike, the source gives them in different places.

Experiments:
[1] = Oxygen radical absorbance capacity (ORAC) assay
Procedure: The ORAC assay was performed following Ou et al., as modified by Garcés-Rimón et al.. All samples and reagents were dissolved in phosphate buffer (75 mM; pH 7.4). […] The fluorescence was recorded at 40 °C every 55 s for 95 min using a fluorimeter (SpectraMax M2; Molecular Devices, California, USA), with excitation and emission wavelengths of 480 and 520 nm, respectively. All samples were tested in triplicate. ORAC values were expressed as μmol of Trolox equivalents (TE)/μmol of pure compound.

[2] = ABTS radical cation scavenging assay
Procedure: The 2,2′-azino-bis (3-ethylbenzothiazoline-6-sulfonic acid) diammonium salt (ABTS) assay was performed according to Re et al. and modified by Oki et al. for its use in microplates. Samples were diluted in methanol. An ABTS^•+ stock solution was prepared by adding 44 μL of potassium persulfate (140 mmol/L) to a 2.5 mL ABTS^•+ aqueous solution (7 mmol/L). The working solution of the radical ABTS^+ was prepared by diluting the stock solution 1:75 (v/v) in a sodium phosphate buffer (5 mmol/L, pH 7.4) to obtain an absorbance value of 0.7±0.02 at 734 nm. Samples (30 μL) were added to 270 μL of the working solution of ABTS^•+ in a microplate. Absorbance was measured at 734 nm and 30 °C for 20 min, every 5 min in a Synergy HT plate spectrophotometer (Biotek Instruments, Winoosky, VT, USA). A calibration curve was made with Trolox (20–250 μM). All samples were analyzed in triplicate. Results were expressed in μmol TE/μmol of pure compound, as for the ORAC assays.

[3] = Stability in aqueous media (H2O/acetonitrile 80:20, HPLC-MS); assay type: physicochemical; details: for Aqueous Stability (%): remaining pure compound (HPLC) after two months at room temperature in aqueous solution (+20% acetonitrile); for stability in aqueous media: H2O/acetonitrile (80:20%), room temperature, checked for 60 days
Source text: The solutions were checked by HPLC-MS at regular intervals of time for 60 days. […] The rest of the compounds suffered progressive degradation, with complete disappearance from the solution after 10 or 20 days. The most unstable polyphenol derivatives were 4 and 10 (Figure S1), having both two p-dihydroxy substitutions in the phenyl rings, which points to the rapid and easy oxidation to the p-hydroquinone. From the four compounds with three phenyl rings, only one was stable in aqueous solution (17).

[4] = Aqueous thermodynamic solubility in H2O (UV); assay type: physicochemical; details: water, thermodynamic from solid
Source text: 4) Log P and aqueous solubility of selected compounds.
Table S2. Theoretical Log P values and aqueous thermodynamic solubility measured for
Comp `Chemical Structure MW LogP Calc Aqueous Solubility a
a Thermodynamic solubility in H 2O (UV). […]

[5] = system: Saccharomyces cerevisiae strain BY4741; assay: In vivo antioxidant capacity in stressed yeasts (growth recovery, survivors); assay type: cell-based
Procedure: Saccharomyces cerevisiae haploid strain BY4741 was used as described previously. Briefly, 20 μL of glycerol stock culture was revived in 5ml of YPD medium (1% yeast extract, 2% bacteriological peptone and 2% dextrose) at 28 °C, with shaking (210 rpm). Fifty microliters of 20-h-old culture was used to inoculate fresh 5ml YPD (control medium) or 5 mL of oxidative stress medium (YPOxD: YPOxD; 1% yeast extract, 2% bacteriological peptone, 1% dextrose and 3% H2O2). Stress (and control) was conducted during 16h at 28 °C, with shaking (220 rpm).
Growth rate was determined from growth kinetics using the BioScreen C plate-reader system (OY Growth Curves Ab Ldt., Helsinki, Finland). Stressed yeast cultures (16 h old) were used to inoculate 200 µl of fresh media to an initial OD595 of 0.05–0.07, being distributed in 100-well honeycomb plates (Oy Growth Curves) in triplicate per each condition (each different dose of each compound). Plates were then incubated at 28 °C for 72h, with shaking (High force), taking OD measurement each 15 min in the Bioscreen C. Maximum growth rate (μmax) and biomass production (carrying capacity) were determined in R using ‘Growthcurver’ package version 0.3 [24]. Growth curves were constructed in EXCEL, represented as mean ± SEM (standard error of mean). […] In addition, to measure survival after oxidative stress and antioxidant effectiveness of each compound, yeast cells from each challenge were serially diluted in 96-well plates, and each dilution was spotted (with a 8 × 6 stainless steel replica platter from SIGMA) in triplicate to determine viable colonies after 24–48 h at 28 °C. Survivors (mean ± SEM) were compared between treatments with one-way ANOVA, Fisher’s LSD test, with alpha at 0.05 for significance.

SMILES	melting point	Aqueous Stability (%) [3] [%]	ORAC [1]	further results
Oc1cc(O)c2c(c1)O[C@H](c1ccc(O)c(O)c1)[C@H](O)C2 [(-)-Epicatechin, reference compound]	–	–	10.03 ± 5.92 µmol of trolox/µmol of pure co	ABTS [2]: 5.90 ± 0.73 µmol of trolox/µmol of pure co
O=C(Cc1ccc(O)cc1O)Nc1cc(O)ccc1O [Compound 2, 2-(2′,4′-Dihydroxyphenyl)-N-(2,5-dihydroxyphenyl)acetamide]	–	–	8.1 ± 0.1 µmol of trolox/µmol of pure compound	–
O=C(Cc1cc(O)ccc1O)N(c1ccc(O)cc1)c1ccc(O)cc1 [Compound 9, 2-(2′,5′-Dihydroxyphenyl)-N,N-bis(4-hydroxyphenyl)acetamide]	124 to 126 °C	0	29.5 ± 0.5 µmol of trolox/µmol of pure compound	ORAC ([1]; TE: Trolox Equivalents): above 25 TE
O=C(Nc1ccc(O)cc1)Nc1ccc(O)c(O)c1 [Compound 14, N-(3,4-Dihydroxyphenyl)-N′-(4′-hydroxyphenyl)urea]	184 to 187 °C	0	9.6 ± 0.1 µmol of trolox/µmol of pure compound	–
O=C(Nc1ccc(O)cc1)Nc1ccc(O)cc1 [Compound 15, N,N′-bis(4-Hydroxyphenyl)urea]	245 °C	90	8.9 ± 0.4 µmol of trolox/µmol of pure compound	solubility [4]: 62.6 ± 0.1 µg/mL (≈ 256 µM); ABTS [2]: 1.17 ± 0.01 µmol of trolox/µmol of pure compound; stability in aqueous media [3]: sufficiently stable; growth rate (r) recovery of stressed yeast ([5]; H2O2-stressed BY4741, doses 2, 20 and 40 μg): dose-related antioxidant effect; carrying capacity (k) recovery of stressed yeast ([5]; H2O2-stressed BY4741, each dose tested): able to recover the carrying capacity of yeast cells similarly as control antioxidants; carrying capacity (k) recovery of stressed yeast, 2 μg dose ([5]; low 2 μg dose): slightly better than the other two polyphenols and resveratrol
Oc1cc(O)c2c(c1)OC(c1ccc(O)c(O)c1)C(O)C2 [D-Catechin, reference compound]	–	–	8.59 ± 0.84 µmol of trolox/µmol of pure co	ABTS [2]: 3.17 ± 1.22 µmol of trolox/µmol of pure co
OCCc1ccc(O)c(O)c1 [Hydroxytyrosol, reference compound]	–	–	6.33 ± 0.08 µmol of trolox/µmol of pure co	ABTS [2]: 0.97 ± 0.05 µmol of trolox/µmol of pure co
O=c1c(O)c(-c2ccc(O)c(O)c2)oc2cc(O)cc(O)c12 [Quercetin, reference compound]	–	–	6.61 ± 0.27 µmol of trolox/µmol of pure co	ABTS [2]: 5.28 ± 0.29 µmol of trolox/µmol of pure co

Further lines, with some results ahead:

melting point	Aqueous Stability (%) [3] [%]	SMILES	ORAC [1]	further results
178 to 180 °C	2	O=C(Cc1cc(O)ccc1O)Nc1ccc(O)cc1O [Compound 1, N-(2,4-Dihydroxyphenyl)-2-(2′,5′-dihydroxyphenyl)acetamide]	11.0 ± 0.4 µmol of trolox/µmol of pure compound	–
204 to 207 °C (dec.)	0	O=C(Cc1cc(O)ccc1O)Nc1cc(O)ccc1O [Compound 4, N-(2,5-Dihydroxyphenyl)-2-(2′,5′-dihydroxyphenyl)acetamide]	14.4 ± 0.2 µmol of trolox/µmol of pure compound	stability in aqueous media [3]: most unstable
75 to 78 °C	–	O=C(Cc1ccc(O)cc1O)Nc1ccc(O)cc1O [Compound 5, N-(2,4-Dihydroxyphenyl)-2-(2′,4′-dihydroxyphenyl)acetamide]	5.2 ± 0.4 µmol of trolox/µmol of pure compound	–
180 °C (dec.)	0	O=C(Cc1cc(O)ccc1O)Nc1ccc(O)c(O)c1 [Compound 6, 2-(2′,5′-Dihydroxyphenyl)-N-(3,4-dihydroxyphenyl)acetamide]	9.4 ± 0.4 µmol of trolox/µmol of pure compound	–
114 to 116 °C	0	O=C(Cc1cc(O)ccc1O)N(Cc1cc(O)ccc1O)c1ccc(O)cc1 [Compound 10, N-(2′,5′-Dihydroxybenzyl)-2-(2″,5″-dihydroxyphenyl)-N-(4-hydroxyphenyl) acetamide]	27.6 ± 0.5 µmol of trolox/µmol of pure compound	ORAC ([1]; TE: Trolox Equivalents): above 25 TE; stability in aqueous media [3]: most unstable
> 155 °C (dec.)	–	O=C(Nc1ccc(O)cc1O)Nc1cc(O)ccc1O [Compound 11, N-(2,4-Dihydroxyphenyl)-N′-(2′,5′-dihydroxyphenyl)urea]	6.6 ± 0.1 µmol of trolox/µmol of pure compound	–
180 to 182 °C	0	O=C(Nc1ccc(O)cc1)Nc1cc(O)ccc1O [Compound 12, N-(2,5-Dihydroxyphenyl)-N′-(4′-hydroxyphenyl)urea]	12.5 ± 0.7 µmol of trolox/µmol of pure compound	–
141 to 143 °C	–	O=C(Nc1ccc(O)c(O)c1)Nc1cc(O)ccc1O [Compound 13, N-(2,5-Dihydroxyphenyl)-N′-(3′,4′-dihydroxyphenyl)urea]	7.8 ± 0.3 µmol of trolox/µmol of pure compound	–
109 °C (dec.)	0	O=C(Nc1cc(O)ccc1O)Nc1cc(O)ccc1O [Compound 16, N,N′-bis(2,5-Dihydroxyphenyl)urea]	11.9 ± 0.4 µmol of trolox/µmol of pure compound	–
114 to 115 °C	0	O=C(Nc1cc(O)ccc1O)N(Cc1cc(O)ccc1O)c1ccc(O)cc1 [Compound 18, N-(2′,5′-Dihydroxybenzyl)-N′-(2″,5″-dihydroxiphenyl)-N-(4-hydroxyphenyl)urea]	15.3 ± 0.7 µmol of trolox/µmol of pure compound	–
